# Assay results reported in PubChem BioAssay (NCI).
# Values joined by “and” are separate entries in the source; they are usually repeats but may differ in a detail not shown here. Equal values may be shown once.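 Assay format: 96-well plates, 48-hour exposure. The concentration for 50% growth inhibition is given as GI50. The concentration for full growth arrest is given as TGI.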
# What was measured:
# Assay in all cases: NCI anticancer screen, dose series, 48 h
# NCI/ADR-RES ovarian = tested on: NCI/ADR-RES ovarian
# RXF 393 renal = tested on: RXF 393 renal
# HOP-92 NSCLC = tested on: HOP-92 NSCLC
# SNB-19 CNS = tested on: SNB-19 CNS
# SF-539 CNS = tested on: SF-539 CNS
# M14 melanoma = tested on: M14 melanoma
# NCI-H23 lung = tested on: NCI-H23 lung
# SW-620 colon = tested on: SW-620 colon
# A549 NSCLC = tested on: A549 NSCLC
# HL-60(TB) leukemia = tested on: HL-60(TB) leukemia
SMILES,GI50 (NCI/ADR-RES ovarian),TGI (NCI/ADR-RES ovarian),GI50 (RXF 393 renal),TGI (RXF 393 renal),GI50 (HOP-92 NSCLC),TGI (HOP-92 NSCLC),GI50 (SNB-19 CNS),TGI (SNB-19 CNS) [µM],GI50 (SF-539 CNS),TGI (SF-539 CNS),GI50 (M14 melanoma),TGI (M14 melanoma),GI50 (NCI-H23 lung),TGI (NCI-H23 lung) [µM],GI50 (SW-620 colon),TGI (SW-620 colon) [µM],GI50 (A549 NSCLC),TGI (A549 NSCLC),GI50 (HL-60(TB) leukemia),TGI (HL-60(TB) leukemia)
S=C(Nc1ccc(Cl)cc1)Nc1ccc(-c2nc3ccccc3[nH]2)cc1,17.2 µM,> 57.4 µM,5.86 µM,> 20.5 µM,1.53 µM,12.3 µM,9.29 µM,36.5,5.27 µM,13.5 µM,7.54 µM,> 42 µM,3.89 µM,17.5,22.4 µM,> 58.8,14.3 µM,> 54.3 µM,7.26 µM,> 66 µM
CC(=O)N1c2ccccc2Sc2cc(C(O)(C(F)(F)F)C(F)(F)F)ccc21,,> 10 µM,,> 10 µM,,> 10 µM,,> 10,,> 10 µM,,> 10 µM,,> 10,,> 10,,> 10 µM,,> 10 µM
O=C(NOCC1CC1)c1ccc(F)c(F)c1Nc1ccc(I)cc1Cl,2.85 µM,> 47.9 µM,2.11 µM,8.95 µM,0.0927 µM,1.18 µM,1.38 µM,97.3,2.24 µM,9.73 µM,0.0546 µM,0.505 µM,0.782 µM,23,0.141 µM,> 39.3,1.41 µM,13.2 µM,0.19 µM,8.26 µM
O=C1CCC2(C=C(Br)C(=O)C(Br)=C2)O1,16.2 µM,37.3 µM,2.82 µM,6.96 µM,3.07 µM,8.89 µM,18.5 µM,35.6,2.63 µM,7.14 µM,11.8 µM,24.7 µM,12 µM,30,1.81 µM,3.54,24.5 µM,67.3 µM,1.4 µM,6.18 µM
COc1ccc2[nH]c(Cl)c(/C=C3/C(=O)N(C)c4ccccc43)c2c1,> 100 µM,> 100 µM,> 100 µM,> 100 µM,91.3 µM,> 100 µM,48.9 µM,> 100,,,> 100 µM,> 100 µM,> 100 µM,> 100,96.6 µM,> 100,> 100 µM,> 100 µM,> 100 µM,> 100 µM
COc1nc(C)cc2c(=O)n(-c3ccccc3)n(CCCN3CCN(c4ccc(Cl)cc4)CC3)c(=O)c12,> 50 µM,> 50 µM,,,10 µM,41.6 µM,18.8 µM,> 50,> 50 µM,> 50 µM,46.6 µM,> 50 µM,> 50 µM,> 50,43.8 µM,> 50,21.2 µM,> 50 µM,> 50 µM,> 50 µM
O=C(C(Br)Br)C(Br)C(Br)c1ccccc1 (stereo unspecified),5.23 µM,72.4 µM,1.7 µM,3.45 µM,6.21 µM,19.8 µM,17.4 µM,35.2,2.43 µM,7.84 µM,2.5 µM,6.33 µM,5.16 µM,27.5,2.03 µM,4.19,20.4 µM,52.4 µM,5.82 µM,25.7 µM
CCN(CC)CCCCCCCNc1c2ccc(Cl)cc2nc2ccc(OC)cc12,1.03 µM,4.07 µM,0.84 µM,2.35 µM,1.29 µM,3.45 µM,1.75 µM,5.84,,,1.34 µM,2.77 µM,1.14 µM,2.84,0.376 µM,1.64,0.664 µM,2.69 µM,1.71 µM,3.62 µM
O=C(Nc1ccc(Cl)cc1)c1cc2ccccc2cc1O,2.81 µM,> 100 µM,7.19 µM,> 100 µM,1.41 µM,7.77 µM,4.19 µM,> 100,4.01 µM,> 100 µM,,,2 µM,> 100,3.62 µM,> 100,4.54 µM,> 100 µM,2.7 µM,7.91 µM
CN(C)CCCNC(=O)c1cc(NC(=O)c2cc(NC(=O)c3cc(NC(=O)CCc4c[nH]c5ccccc45)cn3C)cn2C)cn1C,> 100 µM,> 100 µM,> 100 µM,> 100 µM,67.1 µM,> 100 µM,> 100 µM,> 100,> 100 µM,> 100 µM,> 100 µM,> 100 µM,> 100 µM,> 100,> 100 µM,> 100,> 100 µM,> 100 µM,> 100 µM,> 100 µM
C[C@]12CCC(=O)C(O)=C1CC[C@@H]1[C@@H]2CC[C@]2(C)C(=O)CC[C@@H]12,,> 100 µM,,> 100 µM,,> 100 µM,,> 100,,> 100 µM,,> 100 µM,,> 100,,> 100,,> 100 µM,,> 100 µM
CCOC(CN=c1nc(N(C)C)ss1)OCC,,> 100 µM,,37.3 µM,,36 µM,,> 77.4,,31.4 µM,,35.5 µM,,65.8,,25.9,,> 100 µM,,12 µM
Cc1ccc2c(N)c(C(=O)N[C@H]3CCc4cc(N5CC6CCC(C5)N6)ccc4C3)sc2n1,0.798 µM,2.76 µM,0.217 µM,0.686 µM,0.642 µM,4.08 µM,0.325 µM,2.49,0.531 µM,2.21 µM,0.307 µM,1.82 µM,1.24 µM,5.31,0.293 µM,2.13,0.207 µM,2.03 µM,0.172 µM,1.31 µM
CC[N+](CC)(CC)CCCn1c2c(c3ccccc3c1=O)C(=O)c1ccccc1-2,6.5 µM,27.2 µM,0.056 µM,17.6 µM,17.9 µM,> 100 µM,31.6 µM,> 100,,,3.1 µM,12.1 µM,2.31 µM,6.42,4.24 µM,> 100,6.27 µM,35.8 µM,58.6 µM,> 100 µM
Cc1nc2cccc(NCc3ccc(C(=O)NO)cc3)c2c(=O)n1-c1ccccc1,1.53 µM,7.16 µM,1.41 µM,2.79 µM,1.93 µM,4.46 µM,1.92 µM,4.56,1.89 µM,4.05 µM,,,1.63 µM,3.18,1.55 µM,5.99,2.22 µM,5.17 µM,2.87 µM,10.2 µM
O=C1C=Cc2ccccc2/C1=C/c1[nH]c(=O)[nH]c1O,20.3 µM,> 100 µM,2.78 µM,10.2 µM,5.75 µM,47.8 µM,3.49 µM,16.6,3.38 µM,16.8 µM,4.42 µM,> 100 µM,8.19 µM,> 100,,,19.8 µM,61.6 µM,3.44 µM,> 100 µM
OCCCCC#Cc1ccccc1C#Cc1ccccc1C(F)(F)F,4.2 µM,16.2 µM,3.39 µM,12.5 µM,6.14 µM,18.4 µM,18 µM,34.3,12 µM,25.2 µM,,,12.1 µM,27.8,4.35 µM,16.4,4.36 µM,16.6 µM,,
CNC(=O)c1cccc(-c2ccc3c(N4CCOC[C@@H]4C)nc(N4CCOC[C@@H]4C)nc3n2)c1,0.24 µM and 0.412 µM and 0.371 µM,3.56 µM and 5.12 µM and > 25.1 µM,0.0488 µM and 0.06 µM and 0.028 µM,0.47 µM and 0.37 µM and 0.337 µM,0.0187 µM and < 0.0133 µM,0.238 µM and 0.0728 µM,0.448 µM and 0.29 µM,> 93.3,0.15 µM and 0.166 µM and 0.125 µM,1.49 µM and 1.26 µM and 0.677 µM,0.047 µM and 0.177 µM and 0.133 µM,44.5 µM and > 6.82 µM and 14.9 µM,0.111 µM and 0.273 µM and 0.245 µM,> 100,0.26 µM and 0.356 µM and 0.293 µM,> 100,0.124 µM and 0.242 µM and 0.142 µM,> 100 µM and > 10 µM and 11.5 µM,0.353 µM and 0.37 µM and 2.91 µM,25.2 µM and > 10 µM and 64.1 µM
Nc1ccccc1C#C/C=C\C#Cc1ccc(Cl)cc1Cl,4.42 µM,18.8 µM,14.3 µM,40.7 µM,17 µM,48.1 µM,,,12.3 µM,28.9 µM,14.7 µM,34.4 µM,14.2 µM,31.5,34.8 µM,> 100,16 µM,44.2 µM,,
C/C=C(\C)C(=O)O[C@H]1C=CC(=O)O[C@H]1CNC(=O)[C@H](C)O,26.2 µM,81.4 µM,19.3 µM,40.1 µM,14.6 µM,28.9 µM,30.5 µM,> 100,19.4 µM,35.4 µM,18.6 µM,41 µM,22.1 µM,47.8,14.6 µM,28.6,31.1 µM,> 100 µM,16.8 µM,39.3 µM
COC(=O)/C(=C\c1c(C)[nH]c2ccccc12)S(=O)(=O)c1ccccc1,4.19 µM,67.7 µM,3.63 µM,31.9 µM,4.14 µM,51.2 µM,7.59 µM,22.1,3.4 µM,11.5 µM,4.4 µM,20 µM,4.81 µM,29.5,5.15 µM,21.9,4.87 µM,64 µM,,
CC(C)(O)C1OCC(C2CCC3(C)C4=CCC5C(C)(C)C(O)CCC5(C)C4CCC23C)CC1O (stereo unspecified),,27 µM,,,,27.6 µM,,36.9,,26.4 µM,,> 100 µM,,81.3,,28.5,,31.8 µM,,> 100 µM
C=C1C(=O)OC2CC3(CO3)C3C(O)C(O)CC3(C)CC12 (stereo unspecified),,> 100 µM,,31.9 µM,,50.7 µM,,> 100,,39.2 µM,,36.7 µM,,47.9,,32.3,,> 100 µM,,44.6 µM
O=C(NC(=S)Nc1ccc(Cl)cc1)c1ccccc1,> 100 µM,> 100 µM,> 56.2 µM,> 100 µM,8.63 µM,68.5 µM,> 79.2 µM,> 100,> 90.7 µM,> 100 µM,> 100 µM,> 100 µM,> 100 µM,> 100,> 100 µM,> 100,> 100 µM,> 100 µM,> 100 µM,> 100 µM
COc1ccc(-c2nc(-c3cn(C)c4ncccc34)cs2)cc1,11.9 µM,> 100 µM,55.2 µM,> 100 µM,2.02 µM,55.9 µM,> 100 µM,> 100,92.7 µM,> 100 µM,28.2 µM,> 100 µM,> 100 µM,> 100,19.3 µM,> 100,76.1 µM,> 100 µM,9.11 µM,> 100 µM
O=C1c2ccccc2-c2c1c1ccccc1c(=O)n2CCNCCNCCn1c2c(c3ccccc3c1=O)C(=O)c1ccccc1-2,1.11 µM,11.1 µM,0.114 µM,10.3 µM,17.4 µM,39.7 µM,1.14 µM,20.5,0.542 µM,12.3 µM,2.58 µM,33.4 µM,0.717 µM,> 30.6,0.0296 µM,1.93,0.231 µM,> 38.2 µM,98.5 µM,> 100 µM
O=C(Oc1ccc(CCl)cc1)c1ccccc1,0.2 µM,0.472 µM,0.174 µM,0.332 µM,0.173 µM,0.348 µM,0.187 µM,0.495,0.152 µM,0.286 µM,0.125 µM,0.348 µM,0.322 µM,1.15,0.103 µM,0.247,1.16 µM,2.42 µM,,
S=C(N/N=C/c1ccccn1)Nc1ccccn1,1.74 µM,> 100 µM,0.485 µM,4.15 µM,0.478 µM,6.23 µM,2.16 µM,> 100,1.81 µM,9.02 µM,,,3.23 µM,> 100,1.7 µM,> 100,2.34 µM,76.6 µM,0.316 µM,1.25 µM
